In US9096615B2, “Bridged bicyclic amino thiazine dioxide compounds as inhibitors of beta-secretase and methods of use thereof” (AMGEN INC., priority 2013, dated 2015):
Where two headings read alike, the source gives them in different places.

How the values were obtained:
Cathepsin D (Cat D) = biological target: T1, Cathepsin D (Cat D) (Homo sapiens, UniProt P07339); experiment: In vitro enzymatic Cathepsin D (Cat D) FRET assay; assay type: biochemical; details: read-out: CatD IC50
T1 construct: made in house; host or cells: CHO cells
T1 sequence (P07339 65-412, species assumed): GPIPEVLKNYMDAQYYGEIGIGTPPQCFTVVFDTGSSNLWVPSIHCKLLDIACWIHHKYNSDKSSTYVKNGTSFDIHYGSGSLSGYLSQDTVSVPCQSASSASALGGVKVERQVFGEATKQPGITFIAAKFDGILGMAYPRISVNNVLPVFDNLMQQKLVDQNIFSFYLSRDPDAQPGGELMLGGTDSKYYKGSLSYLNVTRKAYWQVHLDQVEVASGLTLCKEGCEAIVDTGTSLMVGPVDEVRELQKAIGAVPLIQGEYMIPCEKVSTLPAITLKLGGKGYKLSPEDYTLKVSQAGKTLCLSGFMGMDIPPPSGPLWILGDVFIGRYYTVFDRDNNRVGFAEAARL
Procedure: In Vitro Enzymatic Cathepsin D (Cat D) FRET (Fluorescence Resonance Energy Transfer) Assay
Recombinant Cat D was expressed in CHO cells. The assay buffer for CathepsinD is 0.05 M citrate pH 3.5, 10% DMSO final, 5 mM CHAPS. The Cat D enzyme (9 nM) is pre-incubated for one hour with inhibitors, typically in about 1 uL of DMSO according to a serial dilution, is added thereto. The assays are effectively started by the addition of different FRET substrates (20 nM for Cat D) and the combination is incubated for one hour. The FRET assay is terminated with by addition of Tris buffer, which raises the pH to neutrality, and the fluorescence is determined. The FRET substrate is a peptide with commercially available fluorophore and quencher, on opposite sides of the BACE cleavage site. The Cat D substrate peptide sequence is based on sequence #1 of Table 1 from Gulnik et al. FEBS Letters v413 p 379-384 1997. Proteolytic cleavage of the FRET substrate releases quenching of fluorescence (Cat D excitation 500 nm and emission 580 nm). […]
Where available, the in-vitro Cat D FRET assay data for each of the Examples, conducted by the first procedure, is provided in Tables 1 and 3. For example, the compound of example 28 has a Cat D IC50 value of >400 uM.

BACE1 = BACE1 (Homo sapiens, UniProt P56817); experiment: In vitro enzymatic BACE FRET assay; assay type: biochemical
Sequence of BACE1 (P56817 46-501, species assumed): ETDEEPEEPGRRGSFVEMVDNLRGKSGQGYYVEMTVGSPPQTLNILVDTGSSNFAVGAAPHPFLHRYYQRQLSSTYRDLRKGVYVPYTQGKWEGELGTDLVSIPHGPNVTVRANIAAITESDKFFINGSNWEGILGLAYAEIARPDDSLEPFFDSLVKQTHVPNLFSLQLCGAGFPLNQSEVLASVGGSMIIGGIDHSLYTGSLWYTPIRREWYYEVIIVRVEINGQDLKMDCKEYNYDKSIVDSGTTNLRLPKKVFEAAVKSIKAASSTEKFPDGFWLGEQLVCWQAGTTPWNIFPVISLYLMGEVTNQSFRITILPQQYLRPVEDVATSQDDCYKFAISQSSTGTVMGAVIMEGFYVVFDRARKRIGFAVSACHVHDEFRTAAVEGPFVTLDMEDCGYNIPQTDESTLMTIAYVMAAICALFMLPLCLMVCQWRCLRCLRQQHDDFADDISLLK
Procedure: In Vitro Enzymatic BACE FRET (Fluorescence Resonance Energy Transfer) Assay
Enzyme Assay Data in the Example Table I
The assay buffer used in this screen is 0.05 M acetate, pH 4.2, 10% DMSO final, 100 uM genapol (which is a nonionic detergent, below its Critical Micelle Concentration). The Beta Secretase enzyme (0.2 nM) is pre-incubated for one hour with inhibitors, typically in about 1 uL of DMSO according to a serial dilution, are added thereto. This assay is effectively started by the addition of FRET substrate (50 nM) and the combination is incubated for one hour. The FRET assay is terminated with by addition of Tris buffer, which raises the pH to neutrality, and the fluorescence is determined. The FRET substrate is a peptide with commercially available fluorophore and quencher, on opposite sides of the BACE cleavage site. Proteolytic cleavage of the FRET substrate releases quenching of fluorescence (excitation 488 nm and […]).

[1] = system: Aβ40 in conditioned medium of cells stably expressing Amyloid Precursor Protein (APP); experiment: In vitro BACE cell-based assay (HEK cell assay, Aβ40 sandwich ELISA); details: Homo sapiens, HEK293
Procedure: In Vitro BACE Cell-Based Assay
The cell-based assay measures inhibition or reduction of Aβ40 in conditioned medium of test compound treated cells expressing amyloid precursor protein.
Cells stably expressing Amyloid Precursor Protein (APP) were plated at a density of 40K cells/well in 96 well plates (Costar). The cells were cultivated for 24 hours at 37° C. and 5% CO2 in DMEM supplemented with 10% FBS. The test compounds were then added to cells in 10-point dose response concentrations with the starting concentration being either 100 μM or 10 μM. The compounds were diluted from stock solutions in DMSO and the final DMSO concentration of the test compounds on cells was 0.1%. After 24 h of incubation with the test compounds the supernatant conditioned media was collected and the Aβ 40 levels were determined using a sandwich ELISA. The IC50 of the compound was calculated from the percent of control or percent inhibition of Aβ 40 as a function of the concentration of the test compound.
The sandwich ELISA to detect Aβ 40 was performed in 96 well microtiter plates, which were pre-treated with goat anti-rabbit IgG (Pierce). The capture and detecting antibody pair that were used to detect Aβ 40 from cell supernatants were affinity purified pAb40 (Biosource) and biotinylated 6E10 (Signet Labs Inc.), respectively. The optimal concentration for the pAb40 antibody was 3 μg/ml in Superblock/TBS (Pierce) that was supplemented with 0.05% Tween 20 (Sigma). Optimal concentration for the detection antibody 6E10-biotinylated was 0.5 μg/ml in Superblock/TBS (Pierce) that had been supplemented with 2% normal goat serum and 2% normal mouse serum.
Cellular supernatants were incubated with the capture antibody for 3 h at 4° C., followed by 3 wash steps in TBS-tween (0.05%). The detecting antibody incubation was for 2 h at 4° C., again followed by the wash steps as described previously. The final readout of the ELISA is Time-Resolved Fluorescence (counts per minute) using Delfia reagents Streptavidin-Europium and Enhancement solutions (Perkin Elmer) and the Victor 2 multilabel counter (Perkin Elmer).

[2] = average IC50, read-out: BACE1 Enzyme assay IC50
[3] = average IC50, read-out: BACE1 cell assay IC50
[4] = read-out: BACE1 FRET assay IC50
[5] = Aβ40, 24 h incubation, read-out: HEK cell assay IC50

Row | IC50 (Cathepsin D (Cat D); average IC50, first procedure) [µM] | IC50 (BACE1; [2]) [µM] | IC50 [1, 3] [µM] | IC50 (Cathepsin D (Cat D)) [µM] | IC50 (BACE1; [4]) [µM] | IC50 [1, 5] [µM] | SMILES
1 | 3460 | 0.061 | 0.082 |  |  |  | Cc1cc(C(F)(F)F)cnc1C(=O)Nc1ccc(F)c([C@@]2(CF)N=C(N)[C@@]3(C)CC[C@@H]2S3(=O)=O)c1 (single isomer, unassigned) [Example 114]
2 | 255 | 0.044 | 0.047 |  |  |  | Cc1cc(C(F)(F)F)cnc1C(=O)Nc1ccc(F)c([C@@]2(CF)N=C(N)[C@]3(C)CC[C@H]2S3(=O)=O)c1 (single isomer, unassigned) [Example 116]
3 | > 400 | 0.049 | 0.088 |  |  |  | COc1cnc(C(=O)Nc2ccc(F)c([C@@]3(CF)N=C(N)[C@@]4(C)CC[C@@H]3S4(=O)=O)c2)cn1 (single isomer, unassigned) [Example 120]
4 |  |  |  | 1210 | 0.323 | 0.179 | COc1cnc2c(Nc3ccc(F)c([C@@]4(C)N=C(N)[C@@H]5CCC[C@H]4S5(=O)=O)c3)nccc2n1 (stereo in doubt) [Example 19]
5 |  |  |  | 45.8 | 0.037 | 0.057 | COc1cnc2c(Nc3ccc(F)c([C@@]4(C)N=C(N)[C@@]5(C)CCC[C@@H]4S5(=O)=O)c3)nccc2n1 [Example 1, (1R,4R,5S)-2-Amino-4-(2-fluoro-5-((2-methoxypyrido[3,4-b]pyrazin-5-yl)amino)phenyl)-1,4-dimethyl-9-thia-3-azabicyclo[3.3.1]non-2-ene 9,9-dioxide]
6 |  |  |  | 166 | 0.13 | 0.055 | COc1cnc2c(Nc3ccc(F)c([C@@]4(C)N=C(N)[C@]5(C)CCC[C@H]4S5(=O)=O)c3)nccc2n1 [Example 2, (1S,4R,5R)-2-Amino-4-(2-fluoro-5-((2-methoxypyrido[3,4-b]pyrazin-5-yl)amino)phenyl)-1,4-dimethyl-9-thia-3-azabicyclo[3.3.1]non-2-ene 9,9-dioxide]
7 |  |  |  | 119 | 0.002 | 0.007 | Cc1cc(Cl)cnc1C(=O)Nc1ccc(F)c([C@@]2(C)N=C(N)[C@@]3(C)CCC[C@@H]2S3(=O)=O)c1 [Example 3, N-(3-((1S,2R,5R)-4-Amino-2,5-dimethyl-9,9-dioxido-9-thia-3-azabicyclo[3.3.1]non-3-en-2-yl)-4-fluorophenyl)-5-chloro-3-methylpicolinamide]
8 |  |  |  | 270 | 0.007 | 0.02 | Cc1cc(Cl)cnc1C(=O)Nc1ccc(F)c([C@@]2(C)N=C(N)[C@]3(C)CCC[C@H]2S3(=O)=O)c1 [Example 4, N-(3-((1R,2R,5S)-4-Amino-2,5-dimethyl-9,9-dioxido-9-thia-3-azabicyclo[3.3.1]non-3-en-2-yl)-4-fluorophenyl)-5-chloro-3-methylpicolinamide]
9 |  |  |  | 105 | 0.003 | 0.004 | Cc1cc(OC(F)F)cnc1C(=O)Nc1ccc(F)c([C@@]2(C)N=C(N)[C@@]3(C)CCC[C@@H]2S3(=O)=O)c1 [Example 5, N-(3-((1S,2R,5R)-4-Amino-2,5-dimethyl-9,9-dioxido-9-thia-3-azabicyclo[3.3.1]non-3-en-2-yl)-4-fluorophenyl)-5-(difluoromethoxy)-3-methylpicolinamide]
10 |  |  |  | 215 | 0.01 | 0.004 | Cc1cc(OC(F)F)cnc1C(=O)Nc1ccc(F)c([C@@]2(C)N=C(N)[C@]3(C)CCC[C@H]2S3(=O)=O)c1 [Example 6, N-(3-((1R,2R,5S)-4-Amino-2,5-dimethyl-9,9-dioxido-9-thia-3-azabicyclo[3.3.1]non-3-en-2-yl)-4-fluorophenyl)-5-(difluoromethoxy)-3-methylpicolinamide]
11 |  |  |  | 22.6 | 0.007 | 0.22 | Cc1cc(Cl)cnc1C(=O)Nc1ccc(F)c([C@@]2(C)N=C(N)[C@@]3(C)CCC[C@]2(F)S3(=O)=O)c1 [Example 7, N-(3-((1S,2R,5R)-4-Amino-1-fluoro-2,5-dimethyl-9,9-dioxido-9-thia-3-azabicyclo[3.3.1]non-3-en-2-yl)-4-fluorophenyl)-5-chloro-3-methylpicolinamide]
12 |  |  |  | 22.7 | 0.004 | 0.113 | Cc1cc(Cl)cnc1C(=O)Nc1ccc(F)c([C@@]2(C)N=C(N)[C@]3(C)CCC[C@@]2(F)S3(=O)=O)c1 [Example 8, N-(3-((1R,2R,5S)-4-Amino-1-fluoro-2,5-dimethyl-9,9-dioxido-9-thia-3-azabicyclo[3.3.1]non-3-en-2-yl)-4-fluorophenyl)-5-chloro-3-methylpicolinamide]
13 |  |  |  | 19 | 0.007 | 0.149 | Cc1cc(OC(F)F)cnc1C(=O)Nc1ccc(F)c([C@@]2(C)N=C(N)[C@@]3(C)CCC[C@]2(F)S3(=O)=O)c1 [Example 9, N-(3-((1S,2R,5R)-4-Amino-1-fluoro-2,5-dimethyl-9,9-dioxido-9-thia-3-azabicyclo[3.3.1]non-3-en-2-yl)-4-fluorophenyl)-5-(difluoromethoxy)-3-methylpicolinamide]
14 |  |  |  | 8.75 | 0.009 | 0.035 | Cc1cc(OC(F)F)cnc1C(=O)Nc1ccc(F)c([C@@]2(C)N=C(N)[C@]3(C)CCC[C@@]2(F)S3(=O)=O)c1 [Example 10, N-(3-((1R,2R,5S)-4-Amino-1-fluoro-2,5-dimethyl-9,9-dioxido-9-thia-3-azabicyclo[3.3.1]non-3-en-2-yl)-4-fluorophenyl)-5-(difluoromethoxy)-3-methylpicolinamide]
15 |  |  |  | 51.5 | 0.006 | 0.031 | Cc1cc(Cl)cnc1C(=O)Nc1ccc(F)c([C@@]2(C)N=C(N)[C@@]3(C)CCC[C@]2(C)S3(=O)=O)c1 [Example 11, N-(3-((1S,2R,5R)-4-Amino-1,2,5-trimethyl-9,9-dioxido-9-thia-3-azabicyclo[3.3.1]non-3-en-2-yl)-4-fluorophenyl)-5-chloro-3-methylpicolinamide]
16 |  |  |  | 29.7 | 0.005 | 0.033 | Cc1cc(Cl)cnc1C(=O)Nc1ccc(F)c([C@@]2(C)N=C(N)[C@]3(C)CCC[C@@]2(C)S3(=O)=O)c1 [Example 12, N-(3-((1R,2R,5S)-4-Amino-1,2,5-trimethyl-9,9-dioxido-9-thia-3-azabicyclo[3.3.1]non-3-en-2-yl)-4-fluorophenyl)-5-chloro-3-methylpicolinamide]
17 |  |  |  | 8.64 | 0.013 | 0.006 | Cc1cc(OC(F)F)cnc1C(=O)Nc1ccc(F)c([C@@]2(C)N=C(N)[C@@]3(C)CCC[C@]2(C)S3(=O)=O)c1 [Example 13, N-(3-((1S,2R,5R)-4-Amino-1,2,5-trimethyl-9,9-dioxido-9-thia-3-azabicyclo[3.3.1]non-3-en-2-yl)-4-fluorophenyl)-5-(difluoromethoxy)-3-methylpicolinamide]
